Test results taken from ChEMBL document CHEMBL3525962, “Novel bioactivation mechanism of reactive metabolite formation from phenyl methyl-isoxazoles” (Drug Metab Dispos, 2012).

System: Liver microsome
Assay: Drug metabolism in human liver microsomes assessed as oxidative metabolite formation at 10 uM by LC-MS analysis in presence of NADPH
Assay type: ADME

Drug metabolism: metabolite_detected
Compound: Cc1onc(-c2ccccc2)c1NC(=O)NCc1ccc(Cl)cc1Cl
